These results are taken from patent publication US20140057829A1, “Citrullinated Histone H3 (Cit H3) in Septic Shock” (THE GENERAL HOSPITAL CORPORATION, priority 2011, published 2014).

Entries after “also recorded” stand apart in the source; their conditions may differ.

In series [1] the test system is histone H3 in serum. The experiment in a line: Serum histone H3 by Western blot in LPS-induced septic shock mice treated with or without SAHA. It is filed as in vivo. To be noted: blood 3 h after LPS. The method, then: To assure that the data were reliable, independent serum samples were collected and analyzed. As in a previous study (Li et al., Shock. 2009; 32(5): 517-523), male C57B1/6J mice (n=9, 3/group) weighing 25-30 g (purchased from Jackson Labs (Bar Harbor, Me.)) were randomly divided into two groups: LPS control, and SAHA+LPS. Normal saline (10 μl/g body weight) or LPS (20 mg/kg) dissolved in normal saline was injected intraperitoneally. The mice were given DMSO (1 μl/g body weight) or SAHA (50 mg/kg) dissolved in DMSO intraperitoneally 2 hours (h) before, and then soon after injection of LPS. Sham mice (no LPS, no SAHA) were used as the control. Serum separated from these blood samples was saved at −80° C. and used for the current experiment. In the present study, a large dose (35 mg/kg) or a small dose (10 mg/kg) of LPS was administrated intraperitoneally. […] Survival rate was then recorded for over the next 7 days. […]
The samples were analyzed by Western blot with anti-histone H3 antibody. […] The primary antibody was detected by incubation with horseradish peroxidase-coupled second antibody (1:3,000 in PBST with 5% milk) at room temperature for 2 h. […] Films were developed using a standard photographic procedure and quantitative analysis of detected bands was carried out by densitometer scanning using VersaDoc Imaging System (BioRad Laboratories, Hercules, Calif.).

Another series relates to HL-60 granulocytes. Put plainly: Western blots of H3, Ac H3 and Cit H3 in lysates and medium of LPS-stimulated HL-60 granulocytes. It is filed as cell-based, human. To be noted: 3 h. The procedure:
Neutrophils might be a source of serum histone H3 during sepsis. To test whether histone H3 deimination/citrullination is induced as part of the neutrophil response to bacterial endotoxin, HL-60 cells obtained from American Type Culture Collection (ATCC) were maintained in Iscove's modified DMEM medium (Invitrogen Life Technologies, Carlsbad, Calif.) supplemented with 20% fetal bovine serum (FBS). These cells were grown at 37° C. in a humidified incubator in 5% CO2 and 95% air, and differentiated into granulocytes by culturing the cells in medium containing 1 μM ATRA for 3 days. The ATRA-differentiated HL-60 granulocytes were treated with 4 μM calcium ionophore in medium containing 1.5 mM calcium chloride, and then incubated with LPS (100 ng/ml) in the presence or absence of SAHA (10 μM) over 3 h. Following incubation, medium was collected, and cell lysates were prepared. The medium and the lysates were tested for H3, Ac H3, Cit H3 and actin (internal control) by Western blots. To ensure there was no false positive data that may be produced from the medium with dead cells, the cells were carefully treated and a sham group was also set up as a control.

Series [2] relates to histone H3 in serum. Put plainly: iTRAQ screen for serum biomarkers in LPS-induced septic shock and SAHA treatment. Type of series: in vivo. To be noted: LPS-induced septic shock; 5 h after first SAHA treatment, 3 h after LPS injection. The procedure: To identify biomarkers of septic shock and treatment, isobaric tag labeling for relative and absolute quantitation (iTRAQ) was performed as described in WO 2010/126635 (which is incorporated herein by reference) in sham (no LPS and no treatment), septic shock (3 h after LPS injection) and SAHA treated (5 h after the first SAHA treatment, and 3 h after LPS injection) animals. Several potential serum biomarkers in LPS-induced septic shock and treatment were found. One of them was histone H3, a chromatin protein in nucleus.

Series [3] concerns rodent models of LPS-induced septic shock. To be noted: rodent models of LPS-induced septic shock (Li et al. 2009, 2010); cited from earlier work.
The test system of another series is serum Cit H3 and H3. Put plainly: Serum Cit H3, H3 and Ac H3 by Western blot after small or large dose of LPS. It is filed as in vivo, mice. To be noted: 3 h after injection. The method, then: The samples were analyzed by Western blot with anti-histone H3 antibody. Western blot analysis was performed as follows. Proteins (about 100 μg per lane) were separated by sodium dodecyl sulphate-polyacrylamide gel electrophoresis (SDS-PAGE) on 15% polyacrylamide gels and transferred onto nitrocellulose membranes (Bio-Rad Laboratories, Hercules, Calif.). The membranes were blocked in 0.05% PBS-Tween (PBST) containing 5% milk (Bio-Rad Laboratories, Hercules, Calif.) and then incubated with the primary antibody at 4° C. overnight. The primary antibody was detected by incubation with horseradish peroxidase-coupled second antibody (1:3,000 in PBST with 5% milk) at room temperature for 2 h. The chemiluminescence detection was performed by using WesternLighting Chemiluminescence Reagent Plus (PerkinElmer LAS, Inc., Boston, Mass.). Films were developed using a standard photographic procedure and quantitative analysis of detected bands was carried out by densitometer scanning using VersaDoc Imaging System (BioRad Laboratories, Hercules, Calif.).
It has been reported that the effects of LPS on lethality and protein expression are dose-dependent (Barton and Jackson, Infect Immun. 1993; 61(4): 1496-1499; Haque et al., Pneumon. 2009; 22(2): 143-155). […] The serum levels of all three histone H3 were then measured and correlated to mortality. […]

The next series deals with TNF-α. Put plainly: Serum TNF-α ELISA after small or large dose of LPS. It is filed as in vivo, mice. To be noted: 3 h after endotoxin insult. The procedure: There is general agreement that the main pathogenic mediator in lethal septic shock is TNF-α (Beutler and Cerami, Annu Rev Immunol. 7: 625-55, 1989). To determine whether TNF-α can predict lethality of LPS-induced shock as well as Cit H3, blood was collected from sham, LPS (SD), and LPS (LD) groups at 3 h after LPS injection (n=5/group). Quantitative determination of TNF-α in the blood of mice was made using Quantikine Enzyme-Linked Immunosorbent Assay (ELISA) Kit (R&D Systems, Minneapolis, Minn.) according to manufacturer's instruction. The concentration of the cytokine was measured by optical densitometry at 450 nm in a SpectramaxPlus 384 microplate reader (Molecular Devices, Sunnyvale, Calif.). All of the analyses were performed in triplicates.

For the next series, the system named is mice. Put plainly: Survival of mice after small or large dose of LPS. Type of series: in vivo. Particulars: for survival rate: 7 day observation. The method, then: To assure that the data were reliable, independent serum samples were collected and analyzed. As in a previous study (Li et al., Shock. 2009; 32(5): 517-523), male C57B1/6J mice (n=9, 3/group) weighing 25-30 g (purchased from Jackson Labs (Bar Harbor, Me.)) were randomly divided into two groups: LPS control, and SAHA+LPS. Normal saline (10 μl/g body weight) or LPS (20 mg/kg) dissolved in normal saline was injected intraperitoneally. The mice were given DMSO (1 μl/g body weight) or SAHA (50 mg/kg) dissolved in DMSO intraperitoneally 2 hours (h) before, and then soon after injection of LPS. Sham mice (no LPS, no SAHA) were used as the control. Serum separated from these blood samples was saved at −80° C. and used for the current experiment. In the present study, a large dose (35 mg/kg) or a small dose (10 mg/kg) of LPS was administrated intraperitoneally. All animals were housed in plastic cages and had access to chow and water throughout the experiment. The animals were kept at room temperature (24±2° C.) and exposed to alternative cycles of 12 h light and darkness. Survival rate was then recorded for over the next 7 days. Blood was collected from the orbital sinus (as described in Hoff, Lab Animal. 2000; 29(10): 47-53) at 3 h after LPS injection.
It has been reported that the effects of LPS on lethality and protein expression are dose-dependent (Barton and Jackson, Infect Immun. 1993; 61(4): 1496-1499; Haque et al., Pneumon. 2009; 22(2): 143-155). To determine whether serum levels of H3, Cit H3 and acetylated H3 were dependent on the LPS dose, the mice were injected with a small dose ([…]) or a large dose ([…]). The serum levels of all three histone H3 were then measured and correlated to mortality. Mice were randomly divided into three groups (n=10/group): (1) sham group (no LPS), (2) LPS small dose (SD) group, and (3) LPS large dose (LD) group. Blood was collected at 3 h after LPS injection and serum was prepared for immunoblotting.

Take `O=C(CCCCCCC(=O)Nc1ccccc1)NO` [SAHA, suberoylanilide hydroxamic acid]: in the series with histone H3 in serum [1] (SAHA 50 mg/kg i.p. 2 h before and soon after LPS 20 mg/kg), the “serum histone H3 (Western blot)” value is on record as “no histone H3 was detected”. Also, in the series on HL-60 granulocytes (SAHA 10 μM + LPS 100 ng/ml), the “Cit H3 in cultured cell medium (secretion)” value is “decreases; also recorded: no detectable”, the “H3 in cultured cell medium” value was “no detectable”, the “acetylated H3 in cell lysates” value is reported as “increase” and the “expression of Cit H3 in cell lysates” value was “decreases; also recorded: significantly reduced”. In addition, in the series with histone H3 in serum [2], the “histone H3 in serum (iTRAQ)” value was “decreased histone H3 in serum dramatically”. For the same molecule, in series [3], the survival result is listed as “improves survival”.
Take lipopolysaccharide [LPS]: the “Serum H3” value in the series on serum Cit H3 and H3 (LPS SD (10 mg/kg i.p.)) is “increase”. Further, in the series on serum Cit H3 and H3 (all animals (LPS SD and LD)), the “serum Ac H3” value is “No Ac H3 was detected”. In the series with histone H3 in serum [1] (LPS 20 mg/kg i.p. without SAHA), the “serum histone H3 (Western blot)” value is “a histone H3 band was clearly observed”. Besides, in the series with HL-60 granulocytes (LPS 100 ng/ml), the “Cit H3 in cultured cell medium” value is “more” and the “H3 in cultured cell medium” value was “more”. The “Cit H3 in cell lysates” value in the series on HL-60 granulocytes (LPS 100 ng/ml, compared to sham) is “increase”. Besides, the “serum TNF-α” value with TNF-α (LPS LD (35 mg/kg)) was determined as 792 pg/mL. In the series with TNF-α (LPS SD (10 mg/kg)), the “serum TNF-α” value was 741 pg/mL. Also, in the series on mice (LPS LD (35 mg/kg i.p.)), the average survival time entry is on record as “about 20 h”, the “earliest time of death” value is roughly 16 h, the longest survival time is 23 h and the “time by which all mice died” value was “less than 23 h”. This molecule also came in with a survival rate in the series with mice (LPS LD (35 mg/kg i.p.)) of 0%. In the series with mice (LPS LD (35 mg/kg i.p.), n = 10), the “Mice died within 23 h” value was 10. Moreover, in the series on mice (LPS SD (10 mg/kg i.p.)), the average survival time is given as roughly 146 h, the “earliest time of death” value is 27 h and the survival rate is 90%. In addition, the longest survival time in the series on mice (LPS SD (10 mg/kg i.p.), 168 h observation) is reported as 168 h. Moreover, in the series on mice (LPS SD (10 mg/kg i.p.), n = 10), the “Mice died within 23 h” value was “None” and the “Mice survived over 168 h” value came to 9.
